Patent US20250248998A1, “LRRK2 Inhibitors” (Brenig Therapeutics, Inc., priority 2022, published 2025)

Assays:
[1] = A549 cytotoxicity assay (CellTiter-Glo); format: cell-based; conditions: human, A549 cells, 3 days of incubation
Procedure: Example D. A549 Cytotoxicity Assay Used to Determine Safety of the LRRK2 Inhibitors
A549 (ATCC, CCL-185) cells were seeded at a density of 4000 cells per well in a 384-well clear bottom plate (Greiner Cat #781090) in 45 μL total volume of the complete cell culture medium DMEM (PanEco, Cat #C420, Russia) with 10% FBS (HyClone Cat #SV30160.03). The cells were allowed to adhere overnight at 37° C., 5% CO2. The 500× compounds solutions in DMSO (Sigma Cat #D2650) were prepared in the compounds plate (Diamond Well Plate, Axigen, Cat #P-384-120SQ-C-S) and DMSO as a vehicle control was included. The 1 μL aliquot of 500× compounds (Compounds plate) was added to the 49 μL culture medium in the Dilution plate (Diamond Well Plate, Axigen, Cat #P-384-120SQ-C-S), mixed and then the 5 μL aliquots of the 10× compounds solutions was transferred to cells followed by centrifugation at 100 g for 1 min. Final DMSO concentration was 0.2%. After 3 days of incubation the 10 μL per well of CellTiter-Glo (Promega, CAT #G7572) was added to the cells, plate was centrifuged at 100 g for 1 min. The luminescence signal was detected with CLARIOstar Plus (BMG LABTECH) microplate reader.

LRRK2 WT [2] = biological target: T1, LRRK2 WT (Homo sapiens, UniProt Q5S007); assay: Enzymatic activity inhibition against LRRK2 WT (ADP-Glo kinase assay, LRRKtide substrate); format: biochemical; design: purchased SignalChem Biotech, Inc. L10-11G-10; conditions: recombinant LRRK2 WT 36 nM, ATP, 1 h at rt, average Ki
Procedure: Example B. Primary Assays Used to Determine Potency of the LRRK2 Inhibition
Assay for Determining Enzymatic Activity Inhibition Against LRRK2 WT.
Compound activity was determined using recombinant LRRK2 WT protein (SignalChem Biotech, Inc., Cat #L10-11G-10) and LRRKtide substrate (SignalChem Biotech, Inc., Cat #L10-58) in an in vitro enzymatic reaction. The enzymatic reaction was carried out in assay buffer (40 mM TRIS-HCl pH 7.4, 20 mM MgCl2, 0.05 mM DTT, 0.1 mg/mL BSA). The compounds were dispensed into a 384 well Diamond Well Plate (Axigen, Cat #P-384-120SQ-C-S) using the Biomek FX liquid handling system at 80× solutions of compounds in DMSO. The 2× Protein-Substrate mix (final concentration 36 nM of LRRK2 WT and 0.8 μg/μL of LRRKtide) was prepared in the 1× Assay buffer and 4 μL of mixture per well was added into the 384-well white Reaction plate with NBS (Corning, Cat #CLS4513). The 4 μL of LRRKtide substrate w/o LRRK2 WT in the 1× buffer was used for a negative control. Plates were centrifuged for 1 min at 200 g. Next the compounds were added to Reaction plate using Biomek station via following steps: 1 μL of 80× compounds (in DMSO) were mixed thoroughly with 39 μL of 2×10 μM ATP in Assay Buffer, then 4 μL of this mixture was added to Reaction plate with 4 μL of Protein-Substrate mix. Plates were centrifuged for 1 min at 200 g and incubated for 1 hour at rt. Then, 4 μL per well of ADP-Glo reagent (Promega, ADP-Glo™ Kinase Assay, Cat #V9102) was added. Plates were incubated for 30 minutes at rt. Then, 8 μL per well of Kinase detection reagent (Promega, ADP-Glo™ Kinase Assay, Cat #V9102) was added and the luminescence signal was measured with a microplate reader. The % inhibition was then used to calculate the Ki values. The average Ki values are shown in Table B, wherein “A” corresponds to Ki<10.0 nM, “B” corresponds to 10.0 nM K Ki<20.0 nM, “C” 20.0 nM K Ki<50.0 nM, “D” corresponds to 50.0 nM K Ki<100.0 nM and “E” corresponds to Ki>100.0 nM.
Target sequence in this assay (Q5S007 970-2527 limits assumed): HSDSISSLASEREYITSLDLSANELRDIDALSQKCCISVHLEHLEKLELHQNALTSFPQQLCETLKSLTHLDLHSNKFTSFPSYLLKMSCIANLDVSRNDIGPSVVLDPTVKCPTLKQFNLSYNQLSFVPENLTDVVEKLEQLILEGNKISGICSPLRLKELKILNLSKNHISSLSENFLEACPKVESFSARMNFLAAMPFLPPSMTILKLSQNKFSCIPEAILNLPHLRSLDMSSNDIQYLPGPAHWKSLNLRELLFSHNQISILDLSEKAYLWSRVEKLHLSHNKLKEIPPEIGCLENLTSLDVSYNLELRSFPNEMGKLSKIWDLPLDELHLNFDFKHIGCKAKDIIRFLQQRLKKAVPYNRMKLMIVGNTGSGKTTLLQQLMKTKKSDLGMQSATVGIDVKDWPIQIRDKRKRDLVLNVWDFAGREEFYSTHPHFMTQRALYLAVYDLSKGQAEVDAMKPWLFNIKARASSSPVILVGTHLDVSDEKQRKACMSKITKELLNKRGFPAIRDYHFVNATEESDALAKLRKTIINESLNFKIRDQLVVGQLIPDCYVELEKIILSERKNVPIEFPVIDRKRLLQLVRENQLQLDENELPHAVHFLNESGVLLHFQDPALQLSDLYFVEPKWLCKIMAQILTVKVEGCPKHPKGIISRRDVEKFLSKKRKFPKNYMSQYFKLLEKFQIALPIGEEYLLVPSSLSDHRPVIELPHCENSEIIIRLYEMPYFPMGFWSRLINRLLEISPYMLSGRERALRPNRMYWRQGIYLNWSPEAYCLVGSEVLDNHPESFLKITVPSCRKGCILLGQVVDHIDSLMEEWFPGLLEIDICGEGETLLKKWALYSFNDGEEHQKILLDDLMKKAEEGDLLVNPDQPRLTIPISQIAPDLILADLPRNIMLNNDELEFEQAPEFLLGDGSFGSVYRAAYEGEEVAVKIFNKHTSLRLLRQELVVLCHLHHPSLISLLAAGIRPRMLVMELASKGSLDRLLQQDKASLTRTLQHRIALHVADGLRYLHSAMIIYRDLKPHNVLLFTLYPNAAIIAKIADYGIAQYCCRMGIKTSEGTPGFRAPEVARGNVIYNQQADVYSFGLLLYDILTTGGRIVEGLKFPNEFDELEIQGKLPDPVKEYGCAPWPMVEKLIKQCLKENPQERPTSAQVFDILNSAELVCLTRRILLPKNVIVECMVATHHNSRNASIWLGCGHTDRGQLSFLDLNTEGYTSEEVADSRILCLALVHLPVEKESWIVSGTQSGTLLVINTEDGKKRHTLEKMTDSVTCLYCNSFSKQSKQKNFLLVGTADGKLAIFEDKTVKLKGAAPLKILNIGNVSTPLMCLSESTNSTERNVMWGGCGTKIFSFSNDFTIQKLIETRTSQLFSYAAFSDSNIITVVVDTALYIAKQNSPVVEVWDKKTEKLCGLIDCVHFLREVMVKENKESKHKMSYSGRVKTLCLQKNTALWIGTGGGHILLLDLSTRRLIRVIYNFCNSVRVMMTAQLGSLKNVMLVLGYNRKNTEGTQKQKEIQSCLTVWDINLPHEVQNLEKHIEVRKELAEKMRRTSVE

LRRK2[G2019S] [3] = biological target: T2, LRRK2[G2019S] (Homo sapiens, UniProt Q5S007, G2019S); assay: Enzymatic activity inhibition against LRRK2[G2019S] (ADP-Glo kinase assay, LRRKtide substrate); format: biochemical; design: purchased SignalChem Biotech, Inc. L10-12GG-10; conditions: recombinant LRRK2[G2019S] 36 nM, ATP, 1 h at rt, average Ki
Procedure: Example A. Primary Assays Used to Determine Potency of the LRRK2 Inhibition
Assay for Determining Enzymatic Activity Inhibition Against LRRK2[G2019S].
Compound activity was determined using recombinant LRRK2[G2019S] protein (SignalChem Biotech, Inc., Cat #L10-12GG-10) and LRRKtide substrate (SignalChem Biotech, Inc., Cat #L10-58) in an in vitro enzymatic reaction. The enzymatic reaction was carried out in assay buffer (40 mM TRIS-HCl pH 7.4, 20 mM MgCl2, 0.05 mM DTT, 0.1 mg/mL BSA). The compounds were dispensed into a 384 well Diamond Well Plate (Axigen, Cat #P-384-120SQ-C-S) using the Biomek FX liquid handling system at the 80× solutions of compounds in DMSO. The 2× Protein-Substrate mix (final concentration 36 nM of LRRK2[G2019S] and 0.8 μg/μL of LRRKtide) was prepared in 1× Assay buffer and 4 μL of mixture per well was added into the 384-well white Reaction plate with NBS (Corning, Cat #CLS4513). The 4 μL of LRRKtide substrate w/o LRRK2[G2019S] in the 1× buffer was used for a negative control. Plates were centrifuged for 1 min at 200 g. Next the compounds were added to the reaction plate using Biomek station via following steps: 1 μL of 80× compounds (in DMSO) were mixed thoroughly with 39 μL of 2×10 μM ATP in Assay Buffer, then 4 μL of this mixture was added to Reaction plate with 4 μL of Protein-Substrate mix. Plates were centrifuged for 1 min at 200 g and incubated for 1 h at rt. Then, 4 μL per well of ADP-Glo reagent (Promega, ADP-Glo™ Kinase Assay, Cat #V9102) was added. Plates were incubated for 30 min at rt. Then, 8 μL per well of Kinase detection reagent (Promega, ADP-Glo™ Kinase Assay, Cat #V9102) was added and the luminescence signal was measured with a microplate reader. The luminescence signal was detected with CLARIOstar Plus (BMG LABTECH) microplate reader. The % inhibition was then used to calculate the Ki values. The average Ki values are shown in Table A, wherein “A” corresponds to Ki<5.0 nM, “B” corresponds to 5.0 nM≤Ki<10.0 nM, “C” 10.0 nM≤Ki<50.0 nM, “D” corresponds to 50.0 nM≤Ki<100.0 nM and “E” corresponds to Ki>100.0 nM.
Target sequence in this assay (Q5S007 970-2527 G2019S limits assumed): as the sequence (Q5S007 970-2527 limits assumed) above, with G1050S counted along it

LRRK2 WT [4] = biological target: T1, LRRK2 WT; assay: Cell-based NanoBRET target engagement assay in HEK293 cells transfected with LRRK2 WT-NanoLuc fusion vector; design: expressed in transfected cells; host or cells: HEK293 (ATCC); conditions: compound treatment 1 h
Summary of the method: (§1)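 HEK293 cells transiently transfected with NanoLuc-fused LRRK2 WT or G2019S (1 μg) plus carrier DNA, treated 1 h with compound (10-dose, 3-fold dilution from 1 μM). Target engagement read by NanoBRET; IC50 fitted only when signal at top concentration was below 5500.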
Target sequence in this assay (Q5S007 whole entry): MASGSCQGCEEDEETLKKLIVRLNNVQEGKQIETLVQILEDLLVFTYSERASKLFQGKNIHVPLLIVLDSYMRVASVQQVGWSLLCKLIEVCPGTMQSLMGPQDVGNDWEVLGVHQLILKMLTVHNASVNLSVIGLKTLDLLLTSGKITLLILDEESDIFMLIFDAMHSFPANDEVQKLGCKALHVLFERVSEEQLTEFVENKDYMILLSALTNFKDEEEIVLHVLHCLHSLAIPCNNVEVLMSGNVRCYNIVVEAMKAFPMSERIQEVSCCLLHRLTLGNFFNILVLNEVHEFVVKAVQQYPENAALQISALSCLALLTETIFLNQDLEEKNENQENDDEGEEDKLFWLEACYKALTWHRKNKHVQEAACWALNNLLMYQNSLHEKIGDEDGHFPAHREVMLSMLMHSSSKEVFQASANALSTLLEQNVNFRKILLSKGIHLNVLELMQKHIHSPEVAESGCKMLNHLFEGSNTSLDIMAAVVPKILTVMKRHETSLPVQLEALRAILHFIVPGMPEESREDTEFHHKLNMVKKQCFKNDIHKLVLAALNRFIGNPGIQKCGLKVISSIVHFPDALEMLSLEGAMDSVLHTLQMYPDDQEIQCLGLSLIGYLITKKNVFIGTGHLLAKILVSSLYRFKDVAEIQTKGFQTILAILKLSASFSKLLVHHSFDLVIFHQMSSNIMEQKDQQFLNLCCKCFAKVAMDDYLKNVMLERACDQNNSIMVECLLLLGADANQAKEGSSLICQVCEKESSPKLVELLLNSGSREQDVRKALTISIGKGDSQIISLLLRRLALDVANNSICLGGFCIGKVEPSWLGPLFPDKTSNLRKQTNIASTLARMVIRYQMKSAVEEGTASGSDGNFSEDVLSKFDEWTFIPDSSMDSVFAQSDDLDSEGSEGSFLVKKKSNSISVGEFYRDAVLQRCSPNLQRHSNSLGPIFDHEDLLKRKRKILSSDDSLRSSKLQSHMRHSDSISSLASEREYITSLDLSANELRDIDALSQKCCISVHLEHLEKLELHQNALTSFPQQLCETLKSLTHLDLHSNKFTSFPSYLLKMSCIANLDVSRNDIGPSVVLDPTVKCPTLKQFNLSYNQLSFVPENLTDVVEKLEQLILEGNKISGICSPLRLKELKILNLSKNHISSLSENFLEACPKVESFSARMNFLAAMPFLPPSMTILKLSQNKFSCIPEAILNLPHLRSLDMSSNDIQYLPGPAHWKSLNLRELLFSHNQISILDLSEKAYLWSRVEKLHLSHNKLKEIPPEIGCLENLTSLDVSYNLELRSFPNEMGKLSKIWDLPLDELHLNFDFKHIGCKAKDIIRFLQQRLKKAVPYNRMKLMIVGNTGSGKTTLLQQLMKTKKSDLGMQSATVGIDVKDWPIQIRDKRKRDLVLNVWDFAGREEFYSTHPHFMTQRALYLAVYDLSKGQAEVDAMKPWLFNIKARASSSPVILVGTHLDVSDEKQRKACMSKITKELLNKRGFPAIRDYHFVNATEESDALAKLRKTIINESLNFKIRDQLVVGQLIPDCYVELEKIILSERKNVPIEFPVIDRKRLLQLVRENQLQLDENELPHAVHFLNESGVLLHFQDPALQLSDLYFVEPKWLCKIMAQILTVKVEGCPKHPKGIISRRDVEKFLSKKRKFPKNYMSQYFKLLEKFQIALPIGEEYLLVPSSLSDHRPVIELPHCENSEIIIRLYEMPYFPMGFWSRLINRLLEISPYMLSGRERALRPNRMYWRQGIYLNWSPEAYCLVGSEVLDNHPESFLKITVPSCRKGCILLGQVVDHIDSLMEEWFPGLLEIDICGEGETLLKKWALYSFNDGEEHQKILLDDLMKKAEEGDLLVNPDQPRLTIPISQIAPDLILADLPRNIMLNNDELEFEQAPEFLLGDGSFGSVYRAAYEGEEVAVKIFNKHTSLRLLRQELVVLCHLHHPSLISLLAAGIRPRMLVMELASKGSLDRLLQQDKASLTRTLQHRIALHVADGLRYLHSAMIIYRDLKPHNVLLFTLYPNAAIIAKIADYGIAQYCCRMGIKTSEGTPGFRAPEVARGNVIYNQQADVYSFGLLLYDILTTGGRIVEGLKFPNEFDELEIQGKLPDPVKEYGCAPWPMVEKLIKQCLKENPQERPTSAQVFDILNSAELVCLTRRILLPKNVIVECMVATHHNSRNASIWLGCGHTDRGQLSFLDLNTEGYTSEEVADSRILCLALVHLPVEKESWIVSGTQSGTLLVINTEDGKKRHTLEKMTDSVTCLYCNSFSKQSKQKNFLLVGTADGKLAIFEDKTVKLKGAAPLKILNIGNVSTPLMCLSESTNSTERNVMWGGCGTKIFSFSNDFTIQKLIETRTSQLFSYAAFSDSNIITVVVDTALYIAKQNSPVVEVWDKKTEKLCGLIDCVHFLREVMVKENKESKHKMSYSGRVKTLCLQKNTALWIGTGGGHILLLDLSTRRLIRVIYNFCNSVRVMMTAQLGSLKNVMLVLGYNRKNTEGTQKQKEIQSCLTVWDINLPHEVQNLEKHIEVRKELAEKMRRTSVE

LRRK2[G2019S] [5] = biological target: T2, LRRK2[G2019S]; assay: Cell-based NanoBRET target engagement assay in HEK293 cells transfected with LRRK2 (G2019S)-NanoLuc fusion vector; design: expressed in transfected cells; host or cells: HEK293 (ATCC); conditions: compound treatment 1 h
Summary of the method: as §1
Target sequence in this assay (Q5S007 whole entry G2019S): as the sequence (Q5S007 whole entry) above, with G2019S counted along it

Compound	Ki (LRRK2 WT [2]) [nM]	Ki (LRRK2[G2019S] [3]) [nM]	IC50 (LRRK2 WT [4]) [nM]	IC50 (LRRK2[G2019S] [5]) [nM]	CC50 at 3 days [1] [nM]
CC(C)Oc1ccc2[nH]nc(-c3cc(N4CCCC4)c(=O)n(C)n3)c2c1 [Compound 44, 6-(5-isopropoxy-1H-indazol-3-yl)-2-methyl-4-pyrrolidin-1-yl-pyridazin-3-one]	≤ 10	≤ 5	≤ 50	≤ 50	> 10000
C[C@@H]1CN(c2cc(-c3n[nH]c4ccc(OC5(C)CC5)cc34)nn(C)c2=O)C[C@H](C)O1 [Compound 50, 4-[(2S,6R)-2,6-dimethylmorpholin-4-yl]-2-methyl-6-[5-(1-methylcyclopropoxy)-1H-indazol-3-yl]pyridazin-3-one]	≤ 10	≤ 5	≤ 50	≤ 50	> 10000
CC(C)Oc1ccc2[nH]nc(-c3cnnc(N4CCC(O)C4)c3)c2c1 (stereo in doubt) [Compound 2, (R)-1-(5-(5-isopropoxy-1H-indazol-3-yl)pyridazin-3-yl)pyrrolidin-3-ol]	10 to 20	5 to 10	≥ 100	≥ 100	> 10000

More lines, main results first:

Ki (LRRK2 WT [2]) [nM]	Ki (LRRK2[G2019S] [3]) [nM]	IC50 (LRRK2 WT [4]) [nM]	IC50 (LRRK2[G2019S] [5]) [nM]	Compound	CC50 at 3 days [1] [nM]
≤ 10	≤ 5	≤ 50	≤ 50	Cn1nc(-c2n[nH]c3ccc(OC4(C)CC4)cc23)cc(N2CCOCC2)c1=O [Compound 27, 2-methyl-6-[5-(1-methylcyclopropoxy)-1H-indazol-3-yl]-4-morpholino-pyridazin-3-one]	> 27000
≤ 10	≤ 5	≥ 100	≥ 100	CC(C)Oc1ccc2[nH]nc(-c3cc(N4CCOCC4)c(=O)n(C)n3)c2c1 [Compound 14, 6-(5-isopropoxy-1H-indazol-3-yl)-2-methyl-4-morpholino-pyridazin-3-one]	> 10000
